The results in this text go back to patent US20100172988A1, “SUSTAINED RELEASE PREPARATION AND METHOD FOR PRODUCTION THEREOF” (KISSEI PHARMACEUTICAL CO., LTD., priority 2006, published 2010).

Data set [1] is described as follows: Decomposition of compound (I) on adding a basic ingredient. The data set is classed as physicochemical. Conditions: basic ingredient added to compound (I).
Data set [2] can be described thus: pH dependence of the dissolution rate of compound (I). It counts as physicochemical. The following applies: compared with approximately pH 1.2 (gastric juice) and approximately pH 6.8 (intestinal juice).

Consider `CCOC(=O)COc1cc(C)c(CCN[C@@H](C)[C@H](O)c2ccc(O)cc2)cc1C.Cl` [compound (I), Ethyl (−)-2-[4-[2-[[(1S,2R)-2-hydroxy-2-(4-hydroxy-phenyl)-1-methylethyl]amino]ethyl]-2,5-dimethylphenoxy]-acetate hydrochloride], for which, in data set [1], the “decomposition of compound (I)” value is reported as “decomposition of compound (I) itself was accelerated”. Also, the “pH of the highest dissolution rate of the active ingredient” value in data set [2] is listed as “highest dissolution rate at approximately pH 4”.
